Columns and labels:
Format in all cases: in vivo
[1] = tested on: redroot pigweed (Amaranthus retroflexus, AMARE); test: Pre-emerge test, greenhouse herbicide activity screening; conditions: pre-emerge, phytotoxicity rating 0-100 at 14 days after application
How it was run: (§1)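 Herbicidal damage is scored 0 (none) to 100 (complete plant death) two weeks after a simulated field spray. Rates span 15–1000 g ai/ha, delivered in acetone at 187 l/ha. For post-emergence treatments, plants have 2–3 leaves and the spray carries 0.25% v/v non-ionic surfactant.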

[2] = tested on: barnyardgrass (Echinochloa crus-galli, ECHCG); test: as above; conditions: pre-emerge, phytotoxicity rating 0-100 at 14 days after application
How it was run: (§2)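 Visual ratings on a 0-100 scale (0 no damage, 100 all plants dead) were taken at 14 days after treatment. Rates of 15-1000 g ai/ha in acetone, 187 l/ha, were sprayed onto soil one day after planting (pre-emerge) or onto 2-3 leaf plants with 0.25% v/v surfactant (post-emerge).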

[3] = tested on: green foxtail (Setaria viridis, SETVI); test: as above; conditions: pre-emerge, phytotoxicity rating 0-100 at 14 days after application
How it was run: as §2

[4] = tested on: ivyleaf morningglory (Ipomoea hederacea, IPOHE); test: as above; conditions: pre-emerge, rate 63 g ai/ha, phytotoxicity rating 0-100 at 14 days after application
How it was run: as §2

[5] = tested on: johnsongrass (Sorghum halepense, SORHA); test: as above; conditions: pre-emerge, phytotoxicity rating 0-100 at 14 days after application
How it was run: as §2

[6] = tested on: lambsquarters (Chenopodium album, CHEAL); test: as above; conditions: pre-emerge, phytotoxicity rating 0-100 at 14 days after application
How it was run: as §2

[7] = tested on: large crabgrass (Digitaria sanguinalis, DIGSA); test: as above; conditions: pre-emerge, phytotoxicity rating 0-100 at 14 days after application
How it was run: as §2

[8] = tested on: sicklepod (Cassia obtusifolia, CASOB); test: as above; conditions: pre-emerge, phytotoxicity rating 0-100 at 14 days after application
How it was run: as §2

[9] = tested on: velvetleaf (Abutilon theophrasti, ABUTH); test: as above; conditions: pre-emerge, phytotoxicity rating 0-100 at 14 days after application
How it was run: as §2

[10] = tested on: field corn (Zea mays L., var. Dekalb 535, CORN); test: Pre-emerge test, crop safety; conditions: crop damage, pre-emerge, phytotoxicity rating 0-100 at 14 days after application
How it was run: as §1

[11] = tested on: upland rice (Oryza sp., var. Tebonnet, RICE); test: Pre-emerge test, crop safety; conditions: crop damage, pre-emerge, phytotoxicity rating 0-100 at 14 days after application
How it was run: as §1

[12] = tested on: barnyardgrass (Echinochloa crus-galli, ECHCG); test: Post-emerge test, greenhouse herbicide activity screening; conditions: post-emerge, 14 days after application, rating scale 0-100
How it was run: (§3)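 Rating: 0–100 visual injury, 14 DAA. Application: acetone, 187 l/ha, 15–1000 g ai/ha, flat-fan track sprayer with nozzle 40–45 cm above soil or canopy. Post-emerge runs used 0.25% v/v surfactant on 2–3 leaf plants.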

[13] = tested on: green foxtail (Setaria viridis, SETVI); test: as above; conditions: post-emerge, 14 days after application, rating scale 0-100
How it was run: as §3

[14] = tested on: ivyleaf morningglory (Ipomoea hederacea, IPOHE); test: as above; conditions: post-emerge, 14 days after application, rating scale 0-100
How it was run: as §3

[15] = tested on: johnsongrass (Sorghum halepense, SORHA); test: as above; conditions: post-emerge, 14 days after application, rating scale 0-100
How it was run: as §3

[16] = tested on: lambsquarters (Chenopodium album, CHEAL); test: as above; conditions: post-emerge, 14 days after application, rating scale 0-100
How it was run: as §3

[17] = tested on: large crabgrass (Digitaria sanguinalis, DIGSA); test: as above; conditions: post-emerge, 14 days after application, rating scale 0-100
How it was run: as §3

[18] = tested on: redroot pigweed (Amaranthus retroflexus, AMARE); test: as above; conditions: post-emerge, 14 days after application
How it was run: as §3

[19] = tested on: sicklepod (Cassia obtusifolia, CASOB); test: as above; conditions: post-emerge, 14 days after application, rating scale 0-100
How it was run: as §3

[20] = tested on: velvetleaf (Abutilon theophrasti, ABUTH); test: as above; conditions: post-emerge, 14 days after application, rating scale 0-100
How it was run: as §3

[21] = tested on: field corn (Zea mays L., var. Dekalb 535, CORN); test: Post-emerge test, crop safety; conditions: post-emerge, 14 days after application, rating scale 0-100
How it was run: as §2

[22] = tested on: upland rice (Oryza sp., var. Tebonnet, RICE); test: Post-emerge test, crop safety; conditions: post-emerge, 14 days after application, rating scale 0-100
How it was run: as §2

Cc1c(Cl)cc(F)c(-n2c(=O)cc(C(F)(F)F)n(C)c2=O)c1NC(=O)OCCc1ccccc1 [4-57]
Pre-emerge Herbicidal Activity AMARE ([1]; rate 63 g ai/ha): 95
Pre-emerge Herbicidal Activity AMARE ([1]; rate 250 g ai/ha): 100
Pre-emerge Herbicidal Activity ECHCG ([2]; rate 63 g ai/ha): 20
Pre-emerge Herbicidal Activity ECHCG ([2]; rate 250 g ai/ha): 75
Pre-emerge Herbicidal Activity SETVI ([3]; rate 63 g ai/ha): 80
Pre-emerge Herbicidal Activity SETVI ([3]; rate 250 g ai/ha): 100
Pre-emerge Herbicidal Activity IPOHE [4]: 50
Pre-emerge Herbicidal Activity SORHA ([5]; rate 63 g ai/ha): 10
Pre-emerge Herbicidal Activity SORHA ([5]; rate 250 g ai/ha): 70
Pre-emerge Herbicidal Activity CHEAL ([6]; rate 63 g ai/ha): 100
Pre-emerge Herbicidal Activity CHEAL ([6]; rate 250 g ai/ha): 100
Pre-emerge Herbicidal Activity DIGSA ([7]; rate 63 g ai/ha): 60
Pre-emerge Herbicidal Activity DIGSA ([7]; rate 250 g ai/ha): 95
Pre-emerge Herbicidal Activity CASOB ([8]; rate 63 g ai/ha): 10
Pre-emerge Herbicidal Activity CASOB ([8]; rate 250 g ai/ha): 100
Pre-emerge Herbicidal Activity ABUTH ([9]; rate 63 g ai/ha): 100
Pre-emerge Herbicidal Activity ABUTH ([9]; rate 250 g ai/ha): 100
Pre-emerge Herbicidal Activity CORN ([10]; rate 63 g ai/ha): 0
Pre-emerge Herbicidal Activity CORN ([10]; rate 250 g ai/ha): 45
Pre-emerge Herbicidal Activity RICE ([11]; rate 63 g ai/ha): 20
Pre-emerge Herbicidal Activity RICE ([11]; rate 250 g ai/ha): 70
phytotoxicity rating ECHCG ([12]; 63 g ai/ha): 30
phytotoxicity rating ECHCG ([12]; 250 g ai/ha): 40
phytotoxicity rating SETVI ([13]; 63 g ai/ha): 50
phytotoxicity rating SETVI ([13]; 250 g ai/ha): 90
phytotoxicity rating IPOHE ([14]; 63 g ai/ha): 100
phytotoxicity rating IPOHE ([14]; 250 g ai/ha): 100
phytotoxicity rating SORHA ([15]; 63 g ai/ha): 30
phytotoxicity rating SORHA ([15]; 250 g ai/ha): 50
phytotoxicity rating CHEAL ([16]; 63 g ai/ha): 95
phytotoxicity rating CHEAL ([16]; 250 g ai/ha): 100
phytotoxicity rating DIGSA ([17]; 63 g ai/ha): 10
phytotoxicity rating DIGSA ([17]; 250 g ai/ha): 60
phytotoxicity rating AMARE ([18]; 63 g ai/ha, rating scale 0-100 (0 no damage, 100 complete death)): 100
phytotoxicity rating AMARE ([18]; 250 g ai/ha, rating scale 0-100): 100
phytotoxicity rating CASOB ([19]; 63 g ai/ha): 60
phytotoxicity rating CASOB ([19]; 250 g ai/ha): 100
phytotoxicity rating ABUTH ([20]; 63 g ai/ha): 100
phytotoxicity rating ABUTH ([20]; 250 g ai/ha): 100
phytotoxicity rating CORN (crop damage) ([21]; 63 g ai/ha): 40
phytotoxicity rating CORN (crop damage) ([21]; 250 g ai/ha): 90
phytotoxicity rating RICE (crop damage) ([22]; 63 g ai/ha): 50
phytotoxicity rating RICE (crop damage) ([22]; 250 g ai/ha): 80

Reference: patent US6355799B1, “Substituted benzene compounds, process for their preparation, and herbicidal and defoliant compositions containing them” (ISK Americas Incorporated, priority 1997, dated 2002)
